Patent US20020128258A1, “Therapeutical method involving subcutaneous administration of drugs containing cephalotaxine derivatives” (priority 2001, published 2002)
“Also recorded” adds a separate entry of the source. Read-outs that look alike come from different tables or passages of the source.

What was measured:
[1] = system: Beagle Dog; assay: Subacute toxicity screening of two forms of HHT in one dog; format: in vivo; details: for Clinical examination: clinical signs: single subcutaneous injection (hydrochloride day 5, base day 11); for Tolerance (toxicology conclusion): one dog, CIVI 48 hours or subcutaneous injection
Description: Species/Strain: Beagle Dog […]
treatment 1: Intravenous infusion (IV)
Treatments 2 and 3: subcutaneous injection (SQ) […]
treatment 1: continuous Intravenous infusion (CIVI) for 48 hours (days 1 and 2) treatment 2: single subcutaneous (SQ) injection on day 5 treatment 3: single subcutaneous (SQ) injection on day 11
Duration of treatment: see § administration/day […]
treatments 1 and 2: sterile isotonic saline solution

[2] = dog, in vivo, sc
Description: (§1) Comparative Pharmacokinetic Study in Dogs After Subcutaneous Injection of 5 mg/m2 of Hydrochloride and Base Forms of HHT
(§2) Number of animals/sex/dose: the same dog was used for each treatment
(§3) treatment 1: 0.25 mg/kg of substance A (HHT-hydrochloride form)
(§4) treatment 2: 0.25 mg/kg of substance A (HHT-hydrochloride form)
(§5) treatment 3: 0.25 mg/kg of substance B (HHT-base form)
(§6) Treatment 3: aqueous solution in 0.5% hydroxyethylcellulose with 0.1% Tween 80
(§7) Analytical method: HPLC with flourimetric detection
(§8) Blood samples were collected at time 0, 30, 60, 120, 240, 480 minutes and 24 hours then HHT concentration was determined in plasma by an HPLC method in using a fluorimetric detection.

[3] = system: patient with acute myeloid leukemia / blastic phase of chronic myelogenous leukemia
Description: In addition, this patient was not eligible for bone marrow transplantation. All current good clinical practices and applicable ethical rules were applied. […] Physicians of this institution were experienced with the clinical use of the same formulation by intravenous mode of administration in patients with myeloid leukemias. […] A 5 mg-vial of lyophilized HHT hydrochloride for injection was reconstituted with 2.5 mL of saline water for injection. A volume corresponding to 1 mg of HHT per square meter of body surface area per day divided In two daily subcutaneous injections (2 subcutaneous injections a day) was administered in a short single injection, during a period of nine (9) consecutive days.

[4] = system: patients; details: continuous infusion 2.5 mg/m2 daily for 10 to 14 days; cited from earlier work
[5] = Comparative pharmacokinetic study in dogs after subcutaneous injection of hydrochloride and base forms of HHT; details: dog, 0.25 mg/kg single subcutaneous injection
Description: as §1, §2, §3, §4, §5, §6, §7, §8

## COC(=O)C[C@](O)(CCCC(C)(C)O)C(=O)O[C@@H]1C(OC)=C[C@]23CCCN2CCc2cc4c(cc2[C@H]13)OCO4.Cl [HHT hydrochloride]
[1]; after treatment 1: 0.25 mg/kg continuous intravenous infusion 48 hours
  Body weight loss: 1.1 kg
[1]; after treatment 2: 0.25 mg/kg single subcutaneous injection on day 5
  Body weight loss: 0.4 kg
[1]; biopsy taken on day 6, the day after the SQ injection, 0.25 mg/kg
  Local tolerance, microscopic examination (histopathology) of skin biopsy: well tolerated at the local level
[1]; one Beagle dog, 0.25 mg/kg, continuous intravenous infusion for 48 hours
  Clinical signs following CIVI: No clinical signs
[1]; one Beagle dog, 0.25 mg/kg
  Clinical examination: clinical signs: yellowish vomiting, soft feces, transient decrease in activity and hypersalivation
[1]; 0.25 mg/kg
  Tolerance (toxicology conclusion): good tolerance
[2]
  Bioavailability of salt form versus base form: considerably higher (triple)
[2]; 0.25 mg/kg
  Area under the curve (AUC): 280 ng·h/mL
  Calculated rate AUC HHT-hydrochloride/AUC HHT-base: 3.24
  Maximum of concentration in plasma: 112 ng/mL
  Time of maximum of concentration: 2 h
[3]; human, in vivo
  Local tolerance at the points of injection: no local sign of intolerance
[3]; patient #01, SQ 1 mg/m2/day, 9 days
  Granulocyte count (peripheral blood counts): relatively fast decrease
[3]; patient #01, SQ 1 mg/m2/day, typical of intravenous HHT 2.5 mg/m2/day
  Myelosuppressive effect, post-induction follow-up: strong myelosuppressive effect
[3]; patient #03, acute myeloid leukemia
  Clinical improvements compared with examples 3 and 4: Same clinical improvements as those seen in example 3 and 4

## COC(=O)C[C@](O)(CCCC(C)(C)O)C(=O)O[C@@H]1C(OC)=C[C@]23CCCN2CCc2cc4c(cc2[C@H]13)OCO4 [HHT, homoharringtonine]
[4]
  Cardiovascular complications including hypotensive events and arrythmias, patients affected: less than 5 % of patients

## COC(=O)C[C@](O)(CCCC(C)(C)O)C(=O)O[C@@H]1C(OC)=C[C@]23CCCN2CCc2cc4c(cc2[C@H]13)OCO4 [HHT-base, reference compound]
[1]; one Beagle dog, 0.25 mg/kg, 0.25 mg/kg
  Clinical examination: clinical signs: liquid feces with presence of blood, hypersalivation, decrease in activity, pallor of gingival mucous membranes and decrease in activity; also recorded: liquid feces, hypersalivation, decrease in activity and pallor of gingival mucous membrane
[1]; 0.25 mg/kg
  Tolerance (toxicology conclusion): good tolerance
[1]; second subcutaneous injection, 0.25 mg/kg, day 11, same dog after earlier treatments
  Mortality, time after the beginning of the treatment: 8 h
[5]
  Area under the curve (AUC): 86.5 ng·h/mL
  Maximum of concentration in plasma: 18 ng/mL
  Time of maximum of concentration: 0.5 h
